In patent US11492348B2, “Tri-substituted aryl and heteroaryl derivatives as modulators of PI3-kinase and autophagy pathways” (Neuropore Therapies, Inc., priority 2018, dated 2022):
Counter-ions that a name gives are not always drawn.

Legend:
mTor kinase = mTor kinase (Homo sapiens (Human), UniProt P42345); test: mTor assay (33P-ATP filter-binding kinase assay); format: biochemical; settings: 2 hours at room temperature
Procedure: The substrate was prepared in base reaction buffer (20 mM Hepes (pH 7.5), 10 mM MgCl2, 1 mM EGTA, 0.02% Brij35, 0.02 mg/ml BSA, 0.1 mM Na3VO4, 2 mM DTT, 1% DMSO), and required cofactors were added to the substrate solution. The mTor kinase was delivered into the substrate solution, and the solution was gently mixed. Testing compounds were dissolved in 100% DMSO to specific concentration. The serial dilution was conducted by Integra Viaflo Assist in DMSO. The compounds were delivered into the kinase reaction mixture by Acoustic technology (Echo550; nanoliter range), and the reaction mixture was incubated for 20 min at room temperature. Then, 33P-ATP (Specific activity 10 μCi/μl) was delivered into the reaction mixture to initiate the reaction. The reaction mixture was incubated for 2 hours at room temperature. Radioactivity was detected by a filter-binding method. Kinase activity data were expressed as the percent remaining kinase activity in test samples compared to vehicle (dimethyl sulfoxide) reactions. IC50 values and curve fits were obtained using Prism (GraphPad Software).

PI3Kα = PI3Kα (Homo sapiens (Human), UniProt P42336); test: Inhibition of PI3Kα (ADP-Glo kinase activity assay, ATP to ADP conversion); format: biochemical; settings: 25 μM PIP2:PS, 60 μM ATP, 30 min reaction, luminescence
PI3Kα, sequence (P42336 whole entry): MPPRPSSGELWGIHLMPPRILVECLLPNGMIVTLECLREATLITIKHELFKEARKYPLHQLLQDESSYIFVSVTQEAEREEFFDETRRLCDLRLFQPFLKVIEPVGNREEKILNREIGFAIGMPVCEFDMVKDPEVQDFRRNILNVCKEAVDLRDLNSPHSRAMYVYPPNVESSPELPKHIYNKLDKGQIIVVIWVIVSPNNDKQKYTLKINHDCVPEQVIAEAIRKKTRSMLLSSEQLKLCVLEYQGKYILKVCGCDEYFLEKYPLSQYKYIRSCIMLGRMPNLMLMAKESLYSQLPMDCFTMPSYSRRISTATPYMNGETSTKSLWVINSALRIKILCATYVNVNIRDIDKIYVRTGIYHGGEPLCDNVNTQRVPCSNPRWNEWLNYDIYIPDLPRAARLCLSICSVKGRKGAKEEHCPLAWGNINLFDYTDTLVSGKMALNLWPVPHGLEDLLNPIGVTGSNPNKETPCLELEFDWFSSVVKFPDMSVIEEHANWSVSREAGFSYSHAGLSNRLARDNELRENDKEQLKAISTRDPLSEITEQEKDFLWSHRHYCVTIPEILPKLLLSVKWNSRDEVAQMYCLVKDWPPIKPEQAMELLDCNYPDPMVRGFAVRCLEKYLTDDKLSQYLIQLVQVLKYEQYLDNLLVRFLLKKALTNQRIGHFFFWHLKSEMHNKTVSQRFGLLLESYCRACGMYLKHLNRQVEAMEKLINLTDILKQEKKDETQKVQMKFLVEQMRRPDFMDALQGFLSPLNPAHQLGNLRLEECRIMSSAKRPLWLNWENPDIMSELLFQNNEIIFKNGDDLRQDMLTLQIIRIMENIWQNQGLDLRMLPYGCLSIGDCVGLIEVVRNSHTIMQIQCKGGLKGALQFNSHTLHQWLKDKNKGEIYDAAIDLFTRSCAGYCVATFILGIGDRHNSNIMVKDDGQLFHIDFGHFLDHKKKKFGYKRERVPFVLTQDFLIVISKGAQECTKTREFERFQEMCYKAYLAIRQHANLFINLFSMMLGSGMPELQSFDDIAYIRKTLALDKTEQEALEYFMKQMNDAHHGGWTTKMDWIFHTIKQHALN
PI3Kα, sequence (P27986 whole entry partner): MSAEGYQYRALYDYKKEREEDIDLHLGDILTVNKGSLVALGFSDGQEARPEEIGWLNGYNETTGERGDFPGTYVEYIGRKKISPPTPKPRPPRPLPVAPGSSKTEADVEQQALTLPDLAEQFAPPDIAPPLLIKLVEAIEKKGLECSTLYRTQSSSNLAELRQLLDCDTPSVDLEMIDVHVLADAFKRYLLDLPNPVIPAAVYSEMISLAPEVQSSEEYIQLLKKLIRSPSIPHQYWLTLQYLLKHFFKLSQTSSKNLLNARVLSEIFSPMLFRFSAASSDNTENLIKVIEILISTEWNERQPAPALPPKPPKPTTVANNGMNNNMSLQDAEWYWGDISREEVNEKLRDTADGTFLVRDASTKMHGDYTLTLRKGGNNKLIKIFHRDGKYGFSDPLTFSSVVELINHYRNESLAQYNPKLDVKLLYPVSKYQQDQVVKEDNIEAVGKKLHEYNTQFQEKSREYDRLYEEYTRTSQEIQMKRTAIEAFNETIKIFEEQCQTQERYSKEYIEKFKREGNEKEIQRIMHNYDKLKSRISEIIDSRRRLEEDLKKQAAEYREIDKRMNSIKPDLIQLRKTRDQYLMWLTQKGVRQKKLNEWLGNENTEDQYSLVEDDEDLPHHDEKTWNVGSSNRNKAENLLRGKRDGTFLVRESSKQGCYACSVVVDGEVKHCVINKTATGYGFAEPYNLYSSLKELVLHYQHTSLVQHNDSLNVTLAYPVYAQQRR
How it was run: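 Recombinant active PI3Kα (1.1 nM) in HEPES pH 7.5 buffer with 6 mM MgCl2 and 8 mM DTT was preincubated with compound for 0 or 3 h. The reaction ran for 30 min with 25 µM PIP2:PS and 60 µM ATP, and ADP formation was read by ADP-Glo luminescence. IC50 came from a 12-point, 1:3 series fitted with a 4-parameter model, bottom fixed to reference inhibitor controls and top floating.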

[1] = system: (Ser-473) pAKT in B103 (Rat Neuroblastoma) cells; test: pAKT protocol: loss of (Ser-473) pAKT by AlphaScreen in insulin-stimulated B103 cells; format: cell-based; settings: (Ser-473) pAKT/total AKT IC50, 2-hour pretreatment, 2.5 μg/mL insulin 20 minutes
Procedure: Inhibition of the PI3K-AKT-mTOR pathway was measured by quantifying the loss of (Ser-473) pAKT using AlphaScreen (Perkin Elmer). B103 (Rat Neuroblastoma) cells were seeded in serum containing medium (High Glucose DMEM (-Phenol Red)+10% FBS+2× Glutamax+1 mM Sodium Pyruvate+10 mM HEPES+1× Non-Essential Amino Acids+1× Pen/Strep) on a 96-well tissue culture treated plate and grown for 20 hours. Cells were then serum starved in serum free medium (High Glucose DMEM (-Phenol Red)+1× Glutamax+1 mM Sodium Pyruvate+1× Pen/Strep) for 6 hours prior to a 2-hour pretreatment with inhibitors of the pathway, including reference inhibitor LY294002. These inhibitors were prepared at a 200× final concentration as a 6-point, 1:3 serial dilution in DMSO series, with DMSO as the 7th point. The inhibitors were then diluted in experimental medium (High Glucose DMEM (-Phenol Red)+1× Glutamax+1 mM Sodium Pyruvate+1× Pen/Strep+25 mM HEPES+0.1% BSA) and combined with the cells at 1× final concentration in 0.5% DMSO. […] Cells were promptly lysed using Perkin Elmer proprietary lysis buffer and the (Ser-473) pAKT and total AKT contained in the lysate was measured by AlphaScreen. In AlphaScreen, donor beads were coated with streptavidin to capture one of the antibodies, which is biotinylated. Acceptor beads were coated with Protein A to immobilize the other antibody. In the presence of target protein, the two antibodies bring the donor and acceptor beads close together, generating signal. The amount of light emission is directly proportional to the amount of target protein present in the sample. For each inhibitor tested: the ratio of measured (Ser-473) pAKT/totalAKT was plotted in GraphPad Prism as a 7-point, non-linear regression, 4-parameter curve with bottom constrained to reference control bottom and unconstrained top anchored to DMSO.

In the case of `Nc1cc(C(F)(F)F)c(-c2cc(N3CCOCC3)cc(S(=O)(=O)C3CCOC3)c2)cn1` (centres unmarked) [Compound 70, 5-(3-morpholino-5-((tetrahydrofuran-3-yl)sulfonyl)phenyl)-4-(trifluoromethyl)pyridin-2-amine], the IC50 (mTor kinase) is reported as 7610 nM, the “PI3Ka IC50” value (PI3Kα) is reported as 7600 nM and the IC50 [1] is reported as 4020 nM.
With `Cc1cnccc1-c1cc(N2CCOCC2)cc(S(=O)(=O)c2ccccc2)c1` [Compound 12, 4-(3-(3-methylpyridin-4-yl)-5-(phenylsulfonyl)phenyl)morpholine] the IC50 (mTor kinase) was 100000 nM, the “PI3Ka IC50” value (PI3Kα) was 9000 nM and the IC50 [1] was 100000 nM.
For `O=S(=O)(c1ccccc1)c1cc(-c2cnc(NC3CC3)nc2)cc(N2CCOCC2)c1` [Compound 20, N-cyclopropyl-5-(3-morpholino-5-(phenylsulfonyl)phenyl)pyrimidin-2-amine], the IC50 (mTor kinase) was 10000 nM, the “PI3Ka IC50” value (PI3Kα) was 2700 nM and the IC50 [1] was 100000 nM.
With `Nc1ncc(-c2cc(Oc3ccccc3)cc(N3CCOCC3)n2)cn1` [Compound 120, 5-(6-morpholino-4-phenoxypyridin-2-yl)pyrimidin-2-amine] the IC50 (mTor kinase) was 480 nM, the “PI3Ka IC50” value (PI3Kα) was 91 nM and the IC50 [1] was 640 nM.
In the case of `Nc1ncc(-c2cc(N3CCOCC3)cc(S(=O)(=O)[C@H]3CCOC3)c2)cn1` [Compound 53, (S)-5-(3-morpholino-5-((tetrahydrofuran-3-yl)sulfonyl)phenyl)pyrimidin-2-amine], the IC50 (mTor kinase) is reported as 540 nM, the “PI3Ka IC50” value (PI3Kα) is reported as 110 nM and the IC50 [1] is reported as 1650 nM.
For `Nc1ncc(-c2cc(C(=O)c3ccccc3)cc(N3CCOCC3)n2)cn1` [Compound 122, (2-(2-aminopyrimidin-5-yl)-6-morpholinopyridin-4-yl)(phenyl)methanone], the IC50 (mTor kinase) was 510 nM, the “PI3Ka IC50” value (PI3Kα) was 37 nM and the IC50 [1] was 480 nM.
In the case of `Nc1ncc(-c2cc(N3CCOCC3)cc(S(=O)(=O)c3ccccc3)c2)cn1` [Compound 1, 5-(3-morpholino-5-(phenylsulfonyl)phenyl)pyrimidin-2-amine], the IC50 (mTor kinase) is reported as 2000 nM, the “PI3Ka IC50” value (PI3Kα) is reported as 610 nM and the IC50 [1] is reported as 7520 nM.
`Nc1ncc(-c2cc(C3(c4ccccc4)CC3)cc(N3CCOCC3)n2)cn1` [Compound 127, 5-(6-morpholino-4-(1-phenylcyclopropyl)pyridin-2-yl)pyrimidin-2-amine] was tested, and the IC50 (mTor kinase) was 130 nM, the “PI3Ka IC50” value (PI3Kα) was 56 nM and the IC50 [1] was 380 nM.
In the case of `CC(C)(C)OC(=O)N1CC(S(=O)(=O)c2cc(-c3cnc(N)nc3)cc(N3CCOCC3)c2)C1` [Compound 54, tert-butyl 3-((3-(2-aminopyrimidin-5-yl)-5-morpholinophenyl)sulfonyl) azetidine-1-carboxylate], the IC50 (mTor kinase) is reported as 590 nM, the “PI3Ka IC50” value (PI3Kα) is reported as 130 nM and the IC50 [1] is reported as 2460 nM.
With `Nc1ncc(-c2cc(C(=O)c3ccccc3Cl)cc(N3CCOCC3)n2)cn1` [Compound 138, (2-(2-aminopyrimidin-5-yl)-6-morpholinopyridin-4-yl)(2-chlorophenyl)methanone] the IC50 (mTor kinase) was 1100 nM, the “PI3Ka IC50” value (PI3Kα) was 14 nM and the IC50 [1] was 190 nM.
`Nc1cc(F)c(-c2cc(N3CCOCC3)cc(S(=O)(=O)[C@@H]3CCOC3)c2)cn1` [Compound 106, (R)-4-fluoro-5-(3-morpholino-5-((tetrahydrofuran-3-yl)sulfonyl)phenyl)pyridin-2-amine] was tested, and the IC50 (mTor kinase) was 1460 nM, the “PI3Ka IC50” value (PI3Kα) was 100 nM and the IC50 [1] was 4100 nM.
`Nc1ncc(-c2cc(N3CCOCC3)cc(S(=O)(=O)C3CCOC3)c2)cn1` (centres unmarked) [Compound 51, 5-(3-morpholino-5-((tetrahydrofuran-3-yl)sulfonyl)phenyl)pyrimidin-2-amine] was tested, and the IC50 (mTor kinase) was 460 nM, the “PI3Ka IC50” value (PI3Kα) was 120 nM and the IC50 [1] was 2120 nM.
With `Nc1ncc(-c2cc(N3CCOCC3)cc(S(=O)(=O)[C@@H]3CCOC3)c2)cn1` [Compound 52, (R)-5-(3-morpholino-5-((tetrahydrofuran-3-yl)sulfonyl)phenyl)pyrimidin-2-amine] the IC50 (mTor kinase) was 730 nM, the “PI3Ka IC50” value (PI3Kα) was 130 nM and the IC50 [1] was 3460 nM.
In the case of `CC(c1ccccc1)c1cc(-c2cnc(N)nc2)nc(N2CCOCC2)c1` (centres unmarked) [Compound 125, 5-(6-morpholino-4-(1-phenylethyl)pyridin-2-yl)pyrimidin-2-amine], the IC50 (mTor kinase) is reported as 270 nM, the “PI3Ka IC50” value (PI3Kα) is reported as 210 nM and the IC50 [1] is reported as 810 nM.
For `Nc1ncc(-c2cc(N3CCOCC3)cc(S(=O)(=O)C3CCC(F)(F)CC3)c2)cn1` [Compound 88, 5-(3-((4,4-difluorocyclohexyl)sulfonyl)-5-morpholinophenyl)pyrimidin-2-amine], the IC50 (mTor kinase) was 2460 nM, the “PI3Ka IC50” value (PI3Kα) was 530 nM and the IC50 [1] was 6540 nM.
In the case of `Nc1ncc(-c2cc(N3CCOCC3)cc(S(=O)(=O)c3ccc(OC(F)(F)F)cc3)c2)cn1` [Compound 15, 5-(3-morpholino-5-((4-(trifluoromethoxy)phenyl)sulfonyl)phenyl) pyrimidin-2-amine], the IC50 (mTor kinase) is reported as 22000 nM, the “PI3Ka IC50” value (PI3Kα) is reported as 3500 nM and the IC50 [1] is reported as 100000 nM.
In the case of `NC(=O)N1CC(S(=O)(=O)c2cc(-c3cnc(N)nc3)cc(N3CCOCC3)c2)C1` [Compound 81, 3-((3-(2-aminopyrimidin-5-yl)-5-morpholinophenyl)sulfonyl)azetidine-1-carboxamide], the “PI3Ka IC50” value (PI3Kα) is reported as 62 nM and the IC50 [1] is reported as 26400 nM.
In the case of `NCCNc1ncc(-c2cc(N3CCOCC3)cc(S(=O)(=O)Cc3ccc(F)cc3)c2)cn1` [47 (as a HCl salt), N1-(5-(3-((4-fluorobenzyl)sulfonyl)-5-morpholinophenyl)pyrimidin-2-yl)ethane-1,2-diamine], the “PI3Ka IC50” value (PI3Kα) is reported as 1200 nM and the IC50 [1] is reported as 2180 nM.
For `O=S(=O)(c1cc(-c2cnc(NC3CC3)nc2)cc(N2CCOCC2)c1)C1CCOC1` (centres unmarked) [Compound 103, N-cyclopropyl-5-(3-morpholino-5-((tetrahydrofuran-3-yl)sulfonyl)phenyl)pyrimidin-2-amine], the “PI3Ka IC50” value (PI3Kα) was 680 nM and the IC50 [1] was 5810 nM.
`CCC(=O)N1CC(S(=O)(=O)c2cc(-c3cnc(N)nc3)cc(N3CCOCC3)c2)C1` [Compound 75, 1-(3-((3-(2-aminopyrimidin-5-yl)-5-morpholinophenyl)sulfonyl)azetidin-1-yl)propan-1-one] was tested, and the “PI3Ka IC50” value (PI3Kα) was 250 nM and the IC50 [1] was 6400 nM.
`C=C(c1ccccc1)c1cc(-c2cnc(N)nc2)nc(N2CCOCC2)c1` [Compound 126, 5-(6-morpholino-4-(1-phenylvinyl)pyridin-2-yl)pyrimidin-2-amine] was tested, and the “PI3Ka IC50” value (PI3Kα) was 270 nM and the IC50 [1] was 490 nM.
`Nc1ncc(-c2cc(N3CCOCC3)cc(S(=O)(=O)C3CCOC3)c2)c(C(F)(F)F)n1` (centres unmarked) [Compound 72, 5-(3-morpholino-5-((tetrahydrofuran-3-yl)sulfonyl)phenyl)-4-(trifluoromethyl)pyrimidin-2-amine] was tested, and the “PI3Ka IC50” value (PI3Kα) was 460 nM and the IC50 [1] was 9130 nM.
With `Nc1ncc(-c2cc(N3CCOCC3)cc(S(=O)(=O)CC3CCCCC3)c2)cn1` [Compound 60, 5-(3-((cyclohexylmethyl)sulfonyl)-5-morpholinophenyl)pyrimidin-2-amine] the “PI3Ka IC50” value (PI3Kα) was 810 nM and the IC50 [1] was 31100 nM.
With `Nc1ncc(-c2cc(N3CCOCC3)cc(S(=O)(=O)c3coc4ccccc34)c2)cn1` [Compound 109, 5-(3-(benzofuran-3-ylsulfonyl)-5-morpholinophenyl)pyrimidin-2-amine] the “PI3Ka IC50” value (PI3Kα) was 1200 nM and the IC50 [1] was 15000 nM.
`O=C(C1CC1)N1CC(S(=O)(=O)c2cc(-c3cnc(NC4CC4)nc3)cc(N3CCOCC3)c2)C1` [Compound 102, cyclopropyl(3-((3-(2-(cyclopropylamino)pyrimidin-5-yl)-5-morpholinophenyl)sulfonyl)azetidin-1-yl)methanone] was tested, and the “PI3Ka IC50” value (PI3Kα) was 540 nM and the IC50 [1] was 6790 nM.
For `Nc1ncc(-c2cc(N3CCOCC3)cc(S(=O)(=O)C3CN(C(=O)c4ccc(F)cc4)C3)c2)cn1` [Compound 79, (3-((3-(2-aminopyrimidin-5-yl)-5-morpholinophenyl)sulfonyl)azetidin-1-yl)(4-fluorophenyl)methanone], the “PI3Ka IC50” value (PI3Kα) was 210 nM and the IC50 [1] was 5020 nM.
